Data: PubChem BioAssay (NCI)
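Values below derive from 48-hour exposures of cells grown in 96-well plates, with endpoints linearly interpolated between the two concentrations bracketing the appropriate inhibition level. GI50 marks 50% less growth. The concentration for full growth arrest is given as TGI.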

Experiments:
Assay in all cases: NCI-60 cell line screen, 48 h
[1] = test system: 786-0 renal
[2] = test system: A498 renal
[3] = test system: A549 NSCLC
[4] = test system: ACHN renal
[5] = test system: CAKI-1 renal
[6] = test system: CCRF-CEM leukemia
[7] = test system: COLO 205 colon
[8] = test system: DLD-1 colon
[9] = test system: DMS 114 small cell lung
[10] = test system: DMS 273 small cell lung
[11] = test system: EKVX NSCLC
[12] = test system: HCT-116 colon
[13] = test system: HCT-15 colon
[14] = test system: HL-60(TB) leukemia
[15] = test system: HOP-18 NSCLC
[16] = test system: HOP-62 NSCLC
[17] = test system: HT29 colon
[18] = test system: IGROV1 ovarian
[19] = test system: K-562 leukemia
[20] = test system: KM12 colon
[21] = test system: KM20L2 colon
[22] = test system: LOX IMVI melanoma
[23] = test system: LXFL 529 NSCLC
[24] = test system: M14 melanoma
[25] = test system: M19-MEL melanoma
[26] = test system: MALME-3M melanoma
[27] = test system: MOLT-4 leukemia
[28] = test system: NCI-H226 lung
[29] = test system: NCI-H23 lung
[30] = test system: NCI-H460 lung
[31] = test system: NCI-H522 lung
[32] = test system: OVCAR-3 ovarian
[33] = test system: OVCAR-4 ovarian
[34] = test system: OVCAR-5 ovarian
[35] = test system: OVCAR-8 ovarian
[36] = test system: RPMI-8226 leukemia
[37] = test system: RXF 393 renal
[38] = test system: SF-268 CNS
[39] = test system: SF-295 CNS
[40] = test system: SF-539 CNS
[41] = test system: SK-MEL-2 melanoma
[42] = test system: SK-MEL-28 melanoma
[43] = test system: SK-MEL-5 melanoma
[44] = test system: SK-OV-3 ovarian
[45] = test system: SN12C renal
[46] = test system: SNB-19 CNS
[47] = test system: SNB-75 CNS
[48] = test system: SNB-78 CNS
[49] = test system: SW-620 colon
[50] = test system: TK-10 renal
[51] = test system: UACC-257 melanoma
[52] = test system: UACC-62 melanoma
[53] = test system: UO-31 renal
[54] = test system: HCC-2998 colon
[55] = test system: HOP-92 NSCLC
[56] = test system: U251 CNS
[57] = test system: XF 498 CNS

CC1(C)OC(=O)C=C(O)O1.CC1(C)OC(=O)C=C(O)O1.CCO.Oc1ccc2c(c1)CCC2.[Ti]
GI50 [1]: > 100 µM | TGI [1]: > 100 µM | GI50 [2]: > 100 µM | TGI [2]: > 100 µM | GI50 [3]: > 100 µM | TGI [3]: > 100 µM | GI50 [4]: > 100 µM | TGI [4]: > 100 µM | GI50 [5]: > 100 µM | TGI [5]: > 100 µM | GI50 [6]: > 100 µM | TGI [6]: > 100 µM | GI50 [7]: > 100 µM | TGI [7]: > 100 µM | GI50 [8]: > 100 µM | TGI [8]: > 100 µM | GI50 [9]: > 100 µM | TGI [9]: > 100 µM | GI50 [10]: > 100 µM | TGI [10]: > 100 µM | GI50 [11]: > 100 µM | TGI [11]: > 100 µM | GI50 [12]: > 100 µM | TGI [12]: > 100 µM | GI50 [13]: > 100 µM | TGI [13]: > 100 µM | GI50 [14]: > 100 µM | TGI [14]: > 100 µM | GI50 [15]: > 100 µM | TGI [15]: > 100 µM | GI50 [16]: > 100 µM | TGI [16]: > 100 µM | GI50 [17]: > 100 µM | TGI [17]: > 100 µM | GI50 [18]: > 100 µM | TGI [18]: > 100 µM | GI50 [19]: > 100 µM | TGI [19]: > 100 µM | GI50 [20]: > 100 µM | TGI [20]: > 100 µM | GI50 [21]: > 100 µM | TGI [21]: > 100 µM | GI50 [22]: > 100 µM | TGI [22]: > 100 µM | GI50 [23]: > 100 µM | TGI [23]: > 100 µM | GI50 [24]: > 100 µM | TGI [24]: > 100 µM | GI50 [25]: > 100 µM | TGI [25]: > 100 µM | GI50 [26]: > 100 µM | TGI [26]: > 100 µM | GI50 [27]: > 100 µM | TGI [27]: > 100 µM | GI50 [28]: > 100 µM | TGI [28]: > 100 µM | GI50 [29]: > 100 µM | TGI [29]: > 100 µM | GI50 [30]: > 100 µM | TGI [30]: > 100 µM | GI50 [31]: > 100 µM | TGI [31]: > 100 µM | GI50 [32]: > 100 µM | TGI [32]: > 100 µM | GI50 [33]: > 100 µM | TGI [33]: > 100 µM | GI50 [34]: > 100 µM | TGI [34]: > 100 µM | GI50 [35]: > 100 µM | TGI [35]: > 100 µM | GI50 [36]: > 100 µM | TGI [36]: > 100 µM | GI50 [37]: > 100 µM | TGI [37]: > 100 µM | GI50 [38]: > 100 µM | TGI [38]: > 100 µM | GI50 [39]: > 100 µM | TGI [39]: > 100 µM | GI50 [40]: > 100 µM | TGI [40]: > 100 µM | GI50 [41]: > 100 µM | TGI [41]: > 100 µM | GI50 [42]: > 100 µM | TGI [42]: > 100 µM | GI50 [43]: > 100 µM | TGI [43]: > 100 µM | GI50 [44]: > 100 µM | TGI [44]: > 100 µM | GI50 [45]: > 100 µM | TGI [45]: > 100 µM | GI50 [46]: 56.3 µM | TGI [46]: > 100 µM | GI50 [47]: > 100 µM | TGI [47]: > 100 µM | GI50 [48]: > 100 µM | TGI [48]: > 100 µM | GI50 [49]: > 100 µM | TGI [49]: > 100 µM | GI50 [50]: > 100 µM | TGI [50]: > 100 µM | GI50 [51]: > 100 µM | TGI [51]: > 100 µM | GI50 [52]: > 100 µM | TGI [52]: > 100 µM | GI50 [53]: > 100 µM | TGI [53]: > 100 µM

O=C(/C=C\c1cccc2ccccc12)c1ccc(Br)cc1
TGI [1]: 33.7 µM | TGI [2]: > 100 µM | TGI [3]: > 100 µM | TGI [4]: 31.2 µM | TGI [5]: > 100 µM | TGI [6]: 50.6 µM | TGI [7]: 91.6 µM | TGI [8]: 38.4 µM | TGI [9]: 32.2 µM | TGI [10]: 34.5 µM | TGI [11]: 52.1 µM | TGI [54]: 31.7 µM | TGI [12]: 30.3 µM | TGI [13]: 34.7 µM | TGI [14]: 43 µM | TGI [15]: 43.4 µM | TGI [16]: > 100 µM | TGI [55]: 85.6 µM | TGI [17]: 35.3 µM | TGI [18]: 46.1 µM | TGI [19]: 44.2 µM | TGI [20]: 28.3 µM | TGI [21]: 32.2 µM | TGI [23]: 32.8 µM | TGI [24]: 32 µM | TGI [25]: 33.9 µM | TGI [26]: 81.6 µM | TGI [27]: 82.2 µM | TGI [28]: > 100 µM | TGI [29]: > 100 µM | TGI [30]: 37.2 µM | TGI [31]: 35.3 µM | TGI [32]: 34.4 µM | TGI [33]: 35.5 µM | TGI [34]: 47.4 µM | TGI [35]: 33 µM | TGI [36]: 45.9 µM | TGI [38]: 53.1 µM | TGI [39]: 46.5 µM | TGI [40]: 41.9 µM | TGI [42]: 27.7 µM | TGI [43]: 38.7 µM | TGI [44]: 93.6 µM | TGI [45]: > 100 µM | TGI [46]: 61.1 µM | TGI [47]: 56.3 µM | TGI [48]: 41.5 µM | TGI [49]: 24.4 µM | TGI [50]: > 100 µM | TGI [56]: 29.6 µM | TGI [51]: 51.9 µM | TGI [52]: 29.3 µM | TGI [53]: 42.5 µM

COc1ccc2c(c1)CC1NC2Cc2ccccc21 (stereo not drawn)
TGI [1]: > 100 µM | TGI [2]: > 100 µM | TGI [3]: > 100 µM | TGI [4]: > 100 µM | TGI [5]: > 100 µM | TGI [6]: > 100 µM | TGI [7]: > 100 µM | TGI [8]: > 100 µM | TGI [9]: > 100 µM | TGI [11]: > 100 µM | TGI [54]: > 100 µM | TGI [12]: > 100 µM | TGI [13]: > 100 µM | TGI [15]: > 100 µM | TGI [16]: > 100 µM | TGI [17]: > 100 µM | TGI [18]: > 100 µM | TGI [19]: > 100 µM | TGI [20]: > 100 µM | TGI [21]: > 100 µM | TGI [23]: > 100 µM | TGI [24]: > 100 µM | TGI [25]: > 100 µM | TGI [26]: > 100 µM | TGI [27]: > 100 µM | TGI [29]: > 100 µM | TGI [30]: > 100 µM | TGI [31]: > 100 µM | TGI [32]: > 100 µM | TGI [33]: > 100 µM | TGI [34]: > 100 µM | TGI [35]: > 100 µM | TGI [36]: > 100 µM | TGI [38]: > 100 µM | TGI [39]: > 100 µM | TGI [40]: > 100 µM | TGI [41]: > 100 µM | TGI [42]: > 100 µM | TGI [43]: > 100 µM | TGI [44]: > 100 µM | TGI [47]: > 100 µM | TGI [48]: > 100 µM | TGI [49]: > 100 µM | TGI [50]: > 100 µM | TGI [56]: > 100 µM | TGI [51]: > 100 µM | TGI [52]: > 100 µM | TGI [53]: > 100 µM | TGI [57]: > 100 µM
